Results from patent publication US20080039455A1, “PYRAZOLOPYRIMIDINES AND SALTS THEREOF, PHARMACEUTICAL COMPOSITIONS COMPRISING SAME, METHODS OF PREPARING SAME AND USES OF SAME” (priority 2006, published 2008).

Target: T1, human recombinant ALK1 (GST fused to ALK1 intracellular domain [His142-Gln503]) (Homo sapiens, UniProt P37023)
T1 construct: GST fused to ALK1 intracellular domain [His142-Gln503]; made in house
T1 sequence (P37023 142-503): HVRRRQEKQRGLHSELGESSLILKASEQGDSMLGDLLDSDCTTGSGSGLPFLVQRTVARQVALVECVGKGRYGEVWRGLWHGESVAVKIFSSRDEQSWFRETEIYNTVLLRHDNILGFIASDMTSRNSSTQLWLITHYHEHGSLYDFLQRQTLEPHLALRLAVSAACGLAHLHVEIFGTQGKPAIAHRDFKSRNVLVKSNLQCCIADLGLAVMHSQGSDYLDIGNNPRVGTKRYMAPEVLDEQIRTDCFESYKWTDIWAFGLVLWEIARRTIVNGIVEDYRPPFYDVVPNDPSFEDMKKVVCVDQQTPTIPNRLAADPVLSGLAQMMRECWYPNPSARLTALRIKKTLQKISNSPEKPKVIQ
Assay: ALK1-Kinase Flashplate-Assay
Format: biochemical
Conditions: 0.5 μM ATP, biotinylated α-casein substrate; read-out: Assay 1 (ALK1-Kinase Flashplate-Assay IC50 class)
From the text: Biological Assay 1: ALK1-Kinase Flashplate-Assay
ALK1 phosphorylates serine/threonine residues of the biotinylated substrate bovine α-casein in the presence of [γ-^33P]ATP. Detection of the radiolabeled phosphorylated product is achieved by binding to streptavidine-coated Flashplates. The biotin moieties of biotinylated casein bind with high affinity to the streptavidine. The radiolabeled biotinylated casein produced by the ALK1 kinase reaction is able to generate a […] signal when strepatavidine-mediated binding occurs to the scintillant-containing surface of the Flashplates due to the close proximity of the radiolabel and the scintillant. […] The signals obtained are therefore indicative of the ALK1 kinase activity. Measurement is performed in a Perkin-Elmer TopCount or Perkin-Elmer ViewLux instrument.
Enzyme: Purified human recombinant ALK1 (GST fused to ALK1 intracellular domain [His142-Gln503]) produced in-house, aliquots stored at −80° C.;
Diluted enzyme working solution: 2.5 ng/μl ALK1 (in assay buffer) freshly prepared and chilled on ice until use.
Substrate: biotinylated bovine α-casein. Unbiotinylated casein obtained from Sigma was biotinylated by standard procedures using N-hydroxysuccinimide (NHS) ester of biotin.
Substrate working solution: 0.83 μM ATP, 1.67 μM biotinylated a-casein, 7.4 nCi [γ-^33P]ATP/μl in assay buffer
Assay plates: 384-well plates, small volume, white, Greiner (# 784075)
Flashplates: Streptavidin-coated Flashplates, Perkin Elmer (384-well # SPM410A)
Assay buffer: 50 mM Tris/HCl pH 8.0, 1 mM MnCl2, 1 mM DTT, 0.01% NP40, 0.5× Complete EDTA-free
Stop solution: 33.3 μM ATP, 33.3 mM EDTA, 0.07% Triton X-100 in PBS
Saturating buffer for Flashplates: 100 μM ATP, 0.2% Triton X-100 in PBS
Sealing tape: Greiner (# 676080)
Protocol for small volume 5 μl assay (all steps are performed at 20° C., pipetted with CyBi-Well and Multidrop Micro): • 1. 50 nl or 250 nl compound in 100% DMSO • 2. addition of 3 μl substrate working solution with CyBi-Well pipettor • 3. addition of 2 μl enzyme working solution with Multidrop Micro incubation for 60 min at room temperature • 4. addition of 15 μl Stop solution with CyBi-Well pipettor • 5. transfer of 18 μl assay mixture to Flashplates** with CyBi-Well pipettor incubation for at least 3 h at room temperature or over night at 4° C. to allow binding to the streptavidine-coated Flashplates • 6. washing the Flashplates 3 times with 50 μl PBS without Ca++ and Mg++ • 7. sealing with sealing tape • 8. Measurement in Topcount (60 sec/well) **Saturation of Flashplates: The Flashplates are preincubated for at least 1 hour with 50 μl saturating buffer. Remove 18 μl from the 50 μl and transfer 18 μl of the assay mixture to the Flashplate.
Final concentrations, calculated for 5 μl reaction volume: ALK1 5 ng/well; 1 μM biotinylated α-casein; 0.5 μM ATP; 22 nCi/well [γ-^33P]ATP; 1 mM MnCl2; 1 mM DTT; 50 mM Tris-HCl; pH 8.0; 0.01% NP40; 0.5× Complete EDTA-free; 1% or 5% DMSO.
The data were normalised (enzyme reaction without inhibitor=0% inhibition, enzyme reaction in the presence of 10 mM EDTA=100% inhibition) and IC50 values were calculated by a 4 parameter fit using an in-house software.

Row | SMILES | IC50
1 | COc1cc(-c2cnn3ccc(Nc4ccc(C)c(NS(C)(=O)=O)c4)nc23)cc(OC)c1OC [Example 105, N-{2-Methyl-5-[3-(3,4,5-trimethoxy-phenyl)-pyrazolo[1,5-a]pyrimidin-5-ylamino]-phenyl}-methanesulfonamide] | < 1000 nM
2 | COc1ccc(-c2cnn3ccc(Nc4ccccc4)nc23)cc1OC [Example 478, [3-(3,4-Dimethoxy-phenyl)-pyrazolo[1,5-a]pyrimidin-5-yl]-phenyl-amine] | 1000 to 10000 nM
3 | CN(C)CCNc1ccn2ncc(-c3ccc(C(=O)O)cc3)c2n1 [Example 136, 4-[5-(2-Dimethylamino-ethylamino)-pyrazolo[1,5-a]pyrimidin-3-yl]-benzoic acid] | 1000 to 10000 nM
4 | c1ccc(Nc2ccn3ncc(-c4cccs4)c3n2)cc1 [Example 242, Phenyl-(3-thiophen-2-yl-pyrazolo[1,5-a]pyrimidin-5-yl)-amine] | 1000 to 10000 nM
5 | CC(=O)c1cccc(-c2cnn3ccc(Nc4ccc(NS(=O)(=O)c5ccc(C)cc5)cc4)nc23)c1 [Example 201, N-{4-[3-(3-Acetyl-phenyl)-pyrazolo[1,5-a]pyrimidin-5-ylamino]-phenyl}-4-methyl-benzenesulfonamide] | 1000 to 10000 nM
6 | NC(=O)c1cccc(-c2cnn3ccc(Nc4ccc(N5CCOCC5)cc4)nc23)c1 [Example 232, 3-[5-(4-Morpholin-4-yl-phenylamino)-pyrazolo[1,5-a]pyrimidin-3-yl]-benzamide] | < 1000 nM
7 | c1cncc(CNc2ccn3ncc(-c4ccc5c(c4)OCO5)c3n2)c1 [Example 290, (3-Benzo[1,3]dioxol-5-yl-pyrazolo[1,5-a]pyrimidin-5-yl)-pyridin-3-ylmethyl-amine] | 1000 to 10000 nM
8 | c1ccc2sc(-c3cnn4ccc(NCc5ccncc5)nc34)cc2c1 [Example 64, (3-Benzo[b]thiophen-2-yl-pyrazolo[1,5-a]pyrimidin-5-yl)-pyridin-4-ylmethyl-amine] | < 1000 nM
9 | CC(=O)Nc1cccc(-c2cnn3ccc(Nc4ccc(N5CCOCC5)cc4)nc23)c1 [Example 29, N-{3-[5-(4-Morpholin-4-yl-phenylamino)-pyrazolo[1,5-a]pyrimidin-3-yl]-phenyl}-acetamide] | 1000 to 10000 nM
10 | COc1ccc(Nc2ccn3ncc(-c4cccc(C(=O)NCCO)c4)c3n2)cn1 [Example 92, N-(2-Hydroxy-ethyl)-3-[5-(6-methoxy-pyridin-3-ylamino)-pyrazolo[1,5-a]pyrimidin-3-yl]-benzamide] | 1000 to 10000 nM
11 | c1cc(N2CCOCC2)ccc1Nc1ccn2ncc(-c3ccc4c(c3)OCO4)c2n1 [Example 472, (3-Benzo[1,3]dioxol-5-yl-pyrazolo[1,5-a]pyrimidin-5-yl)-(4-morpholin-4-yl-phenyl)-amine] | 1000 to 10000 nM
12 | c1ccc(-c2cnn3ccc(NCc4cccnc4)nc23)cc1 [Example 376, (3-Phenyl-pyrazolo[1,5-a]pyrimidin-5-yl)-pyridin-3-ylmethyl-amine] | 1000 to 10000 nM
13 | Oc1ccc(Nc2ccn3ncc(-c4ccc(O)cc4)c3n2)cc1 [Example 49, 4-[5-[(4-hydroxyphenyl)amino]pyrazolo[1,5-a]pyrimidin-3-yl]-phenol] | < 1000 nM
14 | COc1ccc(-c2cnn3ccc(NCc4cccnc4)nc23)cc1OC [Example 292, [3-(3,4-Dimethoxy-phenyl)-pyrazolo[1,5-a]pyrimidin-5-yl]-pyridin-3-ylmethyl-amine] | 1000 to 10000 nM
15 | COc1ccc(-c2cnn3ccc(Nc4ccc(N5CCOCC5)cc4)nc23)cc1 [Example 173, [3-(4-Methoxy-phenyl)-pyrazolo[1,5-a]pyrimidin-5-yl]-(4-morpholin-4-yl-phenyl)-amine] | 1000 to 10000 nM
16 | Nc1cccc(-c2cnn3ccc(Nc4ccc(O)cc4)nc23)c1 [Example 338, 4-[3-(3-Amino-phenyl)-pyrazolo[1,5-a]pyrimidin-5-ylamino]-phenol] | 1000 to 10000 nM
17 | c1ccc2c(-c3cnn4ccc(Nc5ccc(N6CCOCC6)cc5)nc34)cccc2c1 [Example 412, (4-Morpholin-4-yl-phenyl)-(3-naphthalen-1-yl-pyrazolo[1,5-a]pyrimidin-5-yl)-amine] | 1000 to 10000 nM
